According to US8852928B2, “LexA-based chemical-inducible gene expression system for use in transgenic animals” (Temasek Life Sciences Laboratory Limited, priority 2007, dated 2014):
“Also recorded” adds a separate entry of the source.

Molecular target: T1, LexPR transactivator (Homo sapiens, UniProt P06401)
T1 construct: expressed in transfected cells; host or cells: germline-transgenic zebrafish (Danio rerio) carrying the Ds transposon driver cassette pDs(krt8:LPR-LOP:G4) or derivatives
T1 sequence (P06401 640-914): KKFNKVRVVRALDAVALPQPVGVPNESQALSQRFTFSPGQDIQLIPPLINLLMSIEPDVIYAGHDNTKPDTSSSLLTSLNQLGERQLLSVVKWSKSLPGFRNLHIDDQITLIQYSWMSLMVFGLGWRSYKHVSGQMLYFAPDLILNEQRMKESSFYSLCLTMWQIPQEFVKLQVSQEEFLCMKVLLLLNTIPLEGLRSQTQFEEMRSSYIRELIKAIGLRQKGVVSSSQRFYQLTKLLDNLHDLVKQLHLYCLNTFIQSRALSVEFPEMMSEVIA
Experiment: Control of maternal EGFP expression by treating transgenic females
Format: in vivo, zebrafish
Settings: 1 μM for 12 hours before crossing

## CC#C[C@]1(O)CC[C@H]2[C@@H]3CCC4=CC(=O)CCC4=C3[C@@H](c3ccc(N(C)C)cc3)C[C@@]21C [mifepristone]
  Maternal EGFP expression in offspring of treated transgenic F2 females: produced GFP-positive eggs; also recorded: All the F3 embryos showed maternal EGFP expression
